Results reported in PubChem BioAssay AID1918958 (Molecular Pharmacology Branch, DTP, NCI, 2023).

System: NCI-H196 complex spheroid viability
Assay: Anticancer human tumor NCI-H196 cell line growth inhibition [LSD1];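 note: spheroids exposed to agents for 7 days before readout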;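 for viability, T/C: 100% = DMSO vehicle control viability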
Conditions: for IC50: curve of first compound; for viability, T/C: stronger effect = lower value
From the text: Multicellular complex tumor spheroid response to LSD1 Inhibitor Iadademstat in combination with a variety of drugs and investigational agents in selected tumor cell lines
The current study was undertaken to assess response to LSD1 inhibitors in combination with standard-of-care drugs and investigational agents in solid tumor complex spheroid models as well as in the K-562 leukemia. Complex spheroids include a stromal component modeled by human endothelial cells (HUVEC) and fibroblasts modeled by human mesenchymal stem cells (MSCs). The concentration ranges selected for each drug and investigational agent were based upon clinically achievable concentrations if the clinical Cmax of the agent was known.
Compounds. The drugs and investigational agents used in this study are listed on Table 1. All of the agents used, including staurosporine (NSC755774) and gemcitabine (NSC613327), were obtained from the Developmental Therapeutics Program, NCI. FDA-approved anticancer drugs are available from the NCI at http://dtp.nci.nih.gov/branches/dscb/oncology_drugset_explanation.html. Drugs and investigational agents were >95% pure by proton nuclear magnetic resonance (NMR) and liquid chromatography/mass spectrometry (LC/MS). Stock solutions were prepared at 400x in DMSO, stored at -70 degrees C, and diluted in fresh medium prior to their use. The final concentration of DMSO in cell culture wells never exceeded 0.25% (v/v). The FDA-approved anticancer drug set is available from the Developmental Therapeutics Program at https://dtp.cancer.gov/organization/dscb/obtaining/available_plates.htm. All drugs and investigational agents were tested over a range starting from a high concentration at or near the clinical Cmax and decreasing in half-log increments. If the clinical Cmax for an agent had not been determined, the highest concentration tested was 10 microM.
Cell Lines. The patient-derived cancer cell (PDC) lines: 292921-168-R-J2-PDC, K24384-001-R-PDC, and 521955-158-R2-J5-PDC pancreatic carcinomas, 556581-035-R-J1 ovarian carcinoma, 324938-238-R-J1-PDC, 855422-203-R-J1-PDC and 883617-216-R-J1-PDC urothelial bladder carcinomas, 743489-274-T-PDC renal cell carcinoma, 138582-R-J1 Merkel cell tumor, K60290-347-R-J1 and K57222-313-R-J1-PDC glioblastomas, 653999-131-R-J2-PDC, LG0703-F948-PDC, and 349418-098-R-PDC non-small cell lung carcinomas, 885512-296-R-J2-PDC, 171881-019-R-J1-PDC breast carcinomas and 186277-243-T-J2-PDC and 233499-124-R-J2-PDC colon carcinomas were obtained from the NCI Patient-Derived Models Repository (PDMR, https://pdmr.cancer.gov). The established cell lines NCI/ADR-RES (RRID:CVCL_14520 and OVCAR-5 (RRID:CVCL_1628) ovarian carcinomas, 786-O (RRID:CVCL_1051) and A498 (RRID:CVCL_A498) renal cell carcinoma, NCI-H211 (ATCC, cat. CRL-5824; RRID:CVCL_1529), NCI-H196 (ATCC, cat. CRL-5823, RRID:CVCL_1509), SW 1271 (ATCC, cat. CRL-2177, RRID:CVCL_1716) and NCI-H1876 (ATCC, cat. CRL-5902, RRID:CVCL_1503) small cell lung carcinomas, MDA-MB-231 (RRID:CVCL_0062) and MDA-MB-468 (RRID:CVCL_0419)breast carcinomas (10-12). Pooled donor human umbilical vein endothelial cells (HUVEC, Lonza, cat. CC-2519) and human mesenchymal stem cells (hMSC, Lonza, cat. PT-2501) were purchased from Lonza (Walkersville, MD).
Cell Culture. All cells were maintained in an incubator at 37 degrees C and 5% CO2 with 95% humidity. The PDC lines were cultured according to standard operating procedures established by the NCI PDMR (https://pdmr.cancer.gov). Briefly all PDCs were thawed and cultured in Matrigel-coated flasks prepared with a working solution of 1X Ham's F-12 nutrient mix, without supplementation (Invitrogen, Waltham, MA, cat. 11765054), 100 U/mL penicillin-streptomycin (Invitrogen, cat. 15140122), and 2.5% Matrigel (Corning Inc., Corning, NY, cat. 354248) for the first three passages. […]

COc1cc(C2c3cc4c(cc3C(OC3OC5COC(C)OC5C(O)C3O)C3COC(=O)C23)OCO4)cc(OC)c1O (stereo not given) + NC1CC1c1ccc(-c2cccc(O)c2)cc1
IC50 (second compound 0.1 µM): > 3 µM | IC50 (second compound 0.316 µM): > 3 µM | IC50 (second compound 1 µM): > 3 µM | IC50 (second compound 3.16 µM): > 3 µM | IC50 (second compound 10 µM): > 3 µM | viability, T/C (second compound 0.1 µM, first compound 0.00949 µM): 95.2% | viability, T/C (second compound 0.1 µM, first compound 0.03 µM): 97% | viability, T/C (second compound 0.1 µM, first compound 0.0949 µM): 109% | viability, T/C (second compound 0.1 µM, first compound 0.3 µM): 101% | viability, T/C (second compound 0.1 µM, first compound 0.949 µM): 85.1% | viability, T/C (second compound 0.1 µM, first compound 3 µM): 69.1% | viability, T/C (second compound 0.316 µM, first compound 0.00949 µM): 98.5% | viability, T/C (second compound 0.316 µM, first compound 0.03 µM): 100% | viability, T/C (second compound 0.316 µM, first compound 0.0949 µM): 105% | viability, T/C (second compound 0.316 µM, first compound 0.3 µM): 102% | viability, T/C (second compound 0.316 µM, first compound 0.949 µM): 88.2% | viability, T/C (second compound 0.316 µM, first compound 3 µM): 65.1% | viability, T/C (second compound 1 µM, first compound 0.00949 µM): 90.9% | viability, T/C (second compound 1 µM, first compound 0.03 µM): 104% | viability, T/C (second compound 1 µM, first compound 0.0949 µM): 117% | viability, T/C (second compound 1 µM, first compound 0.3 µM): 121% | viability, T/C (second compound 1 µM, first compound 0.949 µM): 84.1% | viability, T/C (second compound 1 µM, first compound 3 µM): 61.8% | viability, T/C (second compound 3.16 µM, first compound 0.00949 µM): 92.8% | viability, T/C (second compound 3.16 µM, first compound 0.03 µM): 92.4% | viability, T/C (second compound 3.16 µM, first compound 0.0949 µM): 104% | viability, T/C (second compound 3.16 µM, first compound 0.3 µM): 91.4% | viability, T/C (second compound 3.16 µM, first compound 0.949 µM): 76.9% | viability, T/C (second compound 3.16 µM, first compound 3 µM): 53.7% | viability, T/C (second compound 10 µM, first compound 0.00949 µM): 90% | viability, T/C (second compound 10 µM, first compound 0.03 µM): 101% | viability, T/C (second compound 10 µM, first compound 0.0949 µM): 102% | viability, T/C (second compound 10 µM, first compound 0.3 µM): 90.8% | viability, T/C (second compound 10 µM, first compound 0.949 µM): 78.5% | viability, T/C (second compound 10 µM, first compound 3 µM): 59.9%

Nc1ncn(C2CC(O)C(CO)O2)c(=O)n1 (stereo not given) + NC1CC1c1ccc(-c2cccc(O)c2)cc1
IC50 (second compound 0.1 µM): > 1 µM | IC50 (second compound 0.316 µM): > 1 µM | IC50 (second compound 1 µM): > 1 µM | IC50 (second compound 3.16 µM): > 1 µM | IC50 (second compound 10 µM): > 1 µM | viability, T/C (second compound 0.1 µM, first compound 0.00316 µM): 98.6% | viability, T/C (second compound 0.1 µM, first compound 0.01 µM): 99.9% | viability, T/C (second compound 0.1 µM, first compound 0.0316 µM): 99.7% | viability, T/C (second compound 0.1 µM, first compound 0.1 µM): 87.9% | viability, T/C (second compound 0.1 µM, first compound 0.316 µM): 99.5% | viability, T/C (second compound 0.1 µM, first compound 1 µM): 97.9% | viability, T/C (second compound 0.316 µM, first compound 0.00316 µM): 97.5% | viability, T/C (second compound 0.316 µM, first compound 0.01 µM): 95.6% | viability, T/C (second compound 0.316 µM, first compound 0.0316 µM): 98.9% | viability, T/C (second compound 0.316 µM, first compound 0.1 µM): 89% | viability, T/C (second compound 0.316 µM, first compound 0.316 µM): 94.2% | viability, T/C (second compound 0.316 µM, first compound 1 µM): 97% | viability, T/C (second compound 1 µM, first compound 0.00316 µM): 98.4% | viability, T/C (second compound 1 µM, first compound 0.01 µM): 100% | viability, T/C (second compound 1 µM, first compound 0.0316 µM): 98.7% | viability, T/C (second compound 1 µM, first compound 0.1 µM): 91.2% | viability, T/C (second compound 1 µM, first compound 0.316 µM): 96.4% | viability, T/C (second compound 1 µM, first compound 1 µM): 97.7% | viability, T/C (second compound 3.16 µM, first compound 0.00316 µM): 96.4% | viability, T/C (second compound 3.16 µM, first compound 0.01 µM): 95% | viability, T/C (second compound 3.16 µM, first compound 0.0316 µM): 98.1% | viability, T/C (second compound 3.16 µM, first compound 0.1 µM): 88.9% | viability, T/C (second compound 3.16 µM, first compound 0.316 µM): 106% | viability, T/C (second compound 3.16 µM, first compound 1 µM): 95.9% | viability, T/C (second compound 10 µM, first compound 0.00316 µM): 105% | viability, T/C (second compound 10 µM, first compound 0.01 µM): 106% | viability, T/C (second compound 10 µM, first compound 0.0316 µM): 96.3% | viability, T/C (second compound 10 µM, first compound 0.1 µM): 98.4% | viability, T/C (second compound 10 µM, first compound 0.316 µM): 95.4% | viability, T/C (second compound 10 µM, first compound 1 µM): 95.2%
